Laboratory results taken from patent US20230141887A1, “CRYSTAL FORM OF DIAZASPIROPYRAN COMPOUND” (MEDSHINE DISCOVERY INC., priority 2020, published 2023).

Tests used:
MV-4-11 cells = assay: Assay of inhibiting proliferation of MV-4-11 in vitro (CellTiter-Glo, 3 days); format: cell-based, human; conditions: MV-4-11 cell proliferation
Procedure: IMDM medium, fetal bovine serum, and penicillin/streptomycin antibiotics were purchased from Promega (Madison, Wis.). The MV-4-11 cell line was purchased from the Cell Bank of the Chinese Academy of Sciences. Envision Multi-Label Analyzer (PerkinElmer).
MV-4-11 cells were seeded in a white 96-well plate with 80 μL of cell suspension per well containing 10,000 MV-4-11 cells. The cell plate was cultured overnight in a carbon dioxide incubator.
The compounds to be tested were 5-fold serially diluted with a pipette to obtain eight concentrations, i.e., from 2 mmol/L to 26 nmol/L. The assay was carried out in duplicate. 78 μL of medium was added to the intermediate plate, and then 2 μL per well of the serially diluted compounds were transferred to the intermediate plate according to the corresponding position. After mixing, an amount of 20 μL per well was transferred to the cell plate. The cell plate was cultured in a carbon dioxide incubator for 3 days.
25 μL per well of Promega CellTiter-Glo reagent was added to the cell plate and incubated at room temperature for 10 minutes to stabilize the luminescence signal. A PerkinElmer Envision multi-label analyzer was used for reading.
The original data was converted into an inhibition rate, and the IC50 value can be obtained by four-parameter curve fitting.

[1] = In vivo pharmacokinetic assay in mice; parameters: species or system CD-1 male mice
Procedure: CD-1 male mice aged 7 to 10 weeks were selected. The doses for intravenous and oral administration were 1 mg/kg and 2.5 mg/kg, respectively. The mice were fasted for at least 12 hours before the administration, and resumed feeding 4 hours after the administration. The mice had free access to water throughout the assay period.
(§1) On the day of the assay, the animals in the intravenous group were administrated the corresponding compound through a single injection in the tail vein at an administration volume of 5 mL/kg; the oral group were administrated the corresponding compound through a single intragastric gavage at an administration volume of 10 mL/kg. The animals were weighed before administration, and the administration volume was calculated based on the body weight. The time for collecting samples was: 0.083 (the injection group), 0.25, 0.5, 1, 2, 4, 8, 24 h. About 30 μL of whole blood was collected from the saphenous vein at each time point to prepare plasma for concentration determination by high-performance liquid chromatography-tandem mass spectrometry (LC-MS/MS). All animals were euthanized by CO2 anesthesia after collecting the PK samples at the last time point. The plasma concentrations were processed by non-compartmental model of WinNonlin™ Version 6.3 (Pharsight, Mountain View, Calif.) pharmacokinetic software, and the pharmacokinetic parameters were calculated by the linear logarithm trapezoidal method.

[2] = system: human biphenotypic B bone marrow mononuclear leukemia cell MV4-11 subcutaneous xenograft tumor; assay: Inhibition of MV4-11 subcutaneous xenograft tumor in vivo; parameters: species or system nude mice; conditions: for % Inhibition rate on day 14 / Average tumor volume Day 14: Oral, Once a day
Procedure: In this assay, the anti-tumor effect of the compounds was evaluated using a nude mice model of subcutaneous xenograft tumor of human biphenotypic B bone marrow mononuclear leukemia cell MV4-11.
Human biphenotypic B bone marrow mononuclear leukemia cell MV4-11 was cultured in vitro in suspension with a RPMI1640 medium supplemented with 10% fetal bovine serum, 100 U/mL penicillin and 100 μg/mL streptomycin in a 5% CO2 cell incubator at 37° C. Routine passaging was performed twice a week. Cells in the logarithmic growth phase were collected, counted and then used for inoculation.
0.2 mL (1×10^7) of MV4-11 cells (plus matrigel, with a volume ratio of 1:1) were inoculated subcutaneously on the right back of each mouse. The grouping and dosing were started when the average tumor volume reached about 140-200 mm^3.
The diameter of the tumor was measured with vernier calipers twice a week. The formula for calculating the tumor volume is: V=0.5a×b^2, where a and b represent the long and short diameters of the tumor, respectively.

[3] = In vivo pharmacokinetic assay in rats; parameters: species or system SD male rats
Procedure: SD male rats aged 7 to 10 weeks were selected. The rats were fasted for at least 12 hours before the administration, and resumed feeding 4 hours after the administration. The rats had free access to water throughout the assay period.
as §1, with “4, 6,” for “4,”, “200” for “30”, “jugular” for “saphenous”

[4] = In vivo pharmacokinetic assay in dogs; parameters: species or system Male Beagle dogs; conditions: 1 mg/kg
Procedure: Male Beagle dogs older than 6 months of age were selected. On the day of the assay, the animals were given the corresponding compound by single injection in the cephalic or saphenous vein in a volume of 1 mL/kg for the intravenous group; and by single gavage in a volume of 5 mL/kg for the oral group. The animals were weighed before administration and the dosing volume of the compound was calculated based on their body weight. About 0.5 mL of whole blood was collected from the cephalic or saphenous vein at each time point to prepare plasma for determination of concentrations by high performance liquid chromatography-tandem mass spectrometry (LC-MS/MS). Plasma concentrations were processed using non-compartment model of WinNonlin™ Version 6.3 or above (Pharsight, Mountain View, Calif.) pharmacokinetic software, and pharmacokinetic parameters were calculated using the linear log trapezoidal method.

[5] = Oral administration (2.5 mg/kg)

`CCc1nc(C(N)=O)c(Nc2ccc(N3CCC4(CCN(C)CC4)CC3)c(C)c2)nc1NC1CCOCC1.O=C(O)C(F)(F)F` showed an IC50 (MV-4-11 cells) of 3.02 nM, an AUC0-last ([1]; Injection (1 mg/kg)) of 604 nm·h and a Cl ([1]; Injection (1 mg/kg)) of 48.5 mL/min/kg. It also gave a T1/2 ([1]; Injection (1 mg/kg)) of 2.40 h, a Vdss ([1]; Injection (1 mg/kg)) of 8.63 L/kg and a Cmax [1, 5] of 60.5 nM. The F% [1, 5] was 37.3%, the T1/2 [1, 5] was 4.41 h and the Tmax [1, 5] was 4.00 h. For the same compound, the “% Inhibition rate on day 14” value ([2]; 1 mg/kg) was 66.1%, the “Average tumor volume Day 14” value ([2]; 1 mg/kg) was 375 mm^3 and the “% Inhibition rate on day 14” value ([2]; 1.5 mg/kg) was 81.0%. For the same compound, the “Average tumor volume Day 14” value ([2]; 1.5 mg/kg) was 273 mm^3, the “% Inhibition rate on day 14” value ([2]; 4.5 mg/kg) was 114.7% and the “Average tumor volume Day 14” value ([2]; 4.5 mg/kg) was 51 mm^3. For the same compound, the “Average tumor volume Day 0” value ([2]; Day 0, one value for all groups, before dosing) was 149 mm^3, the AUC0-last ([3]; Injection, 1 mg/kg) was 457 nm·h and the Cl ([3]; Injection, 1 mg/kg) was 61.2 mL/min/kg. For the same compound, the T1/2 ([3]; Injection, 1 mg/kg) was 2.99 h, the Vdss ([3]; Injection, 1 mg/kg) was 13.3 L/kg and the Cmax ([3]; Oral, 2.5 mg/kg) was 40.6 nM. The F% ([3]; Oral, 2.5 mg/kg) was 44.7%, the Tmax ([3]; Oral, 2.5 mg/kg) was 8.00 h and the AUC0-last ([4]; Injection) was 765 nm·h. The Cl ([4]; Injection) was 34.2 mL/min/kg, the T1/2 ([4]; Injection) was 9.83 h and the Vdss ([4]; Injection) was 28.9 L/kg. The Cmax ([4]; Oral) was 21.1 nM, the F% ([4]; Oral) was 41.6% and the Tmax ([4]; Oral) was 4.00 h.
